In patent US20220089592A1, “IMIDAZO[1,2-A]PYRIDINYL DERIVATIVES AS IRAK4 INHIBITORS” (priority 2019, published 2022) one finds IC50 data, which are given here for 22 molecules.

Assay [1] concerns the target T1, IRAK4 (Homo sapiens, UniProt Q9NWZ3).
T1 sequence (Q9NWZ3 1-460): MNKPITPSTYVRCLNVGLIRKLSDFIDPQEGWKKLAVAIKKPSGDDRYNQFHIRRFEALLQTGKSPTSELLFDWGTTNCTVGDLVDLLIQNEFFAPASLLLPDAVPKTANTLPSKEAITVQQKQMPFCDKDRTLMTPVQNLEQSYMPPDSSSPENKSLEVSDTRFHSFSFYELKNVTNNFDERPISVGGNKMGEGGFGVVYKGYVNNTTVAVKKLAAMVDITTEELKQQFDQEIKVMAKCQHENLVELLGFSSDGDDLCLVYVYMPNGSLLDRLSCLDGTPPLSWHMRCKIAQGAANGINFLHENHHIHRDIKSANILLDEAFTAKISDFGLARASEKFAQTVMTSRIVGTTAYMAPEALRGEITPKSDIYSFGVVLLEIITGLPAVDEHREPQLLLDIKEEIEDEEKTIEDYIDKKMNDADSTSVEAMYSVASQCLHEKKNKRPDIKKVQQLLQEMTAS
Kind of assay: 2-hour 10 μM ATP Biochemical Assay (MesoScale Detection format; IRAK4 phosphorylation of biotin labeled IRAK1 activation loop peptide). The note with it: IRAK4 MSD BIOCHEMICAL (10 μM ATP) IC50 (μM), 1 nM IRAK4, 2 hours. Put shortly: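 Electrochemiluminescent MSD readout: after streptavidin capture, phosphothreonine on the biotin-labelled IRAK1 activation-loop peptide detected by rabbit antibody and Sulfo-Tag secondary. Phosphorylation ran 2 h with 10 μM ATP before EDTA quench.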

The target in assay [2] is T1, IRAK4. Kind of assay: 2-hour 1 mM ATP IRAK4 Biochemical assay (as above, but with 100 pM IRAK4 and 1 mM ATP). Particulars: IRAK4 MSD BIOCHEMICAL (1 mM ATP) IC50 (μM), 100 pM IRAK4, 2 hours. Put shortly:
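MSD electrochemiluminescence read-out: biotinylated peptide product bound to streptavidin plates, probed with anti-P-Thr rabbit antibody and Sulfo-Tag goat anti-rabbit. Kinase reaction used 1 mM ATP and 100 pM IRAK4 over 2 hours before EDTA quench.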

The term IC50 denotes the concentration at which inhibition is half-maximal. As for `CCOc1cc2nc(C3CCOC3)cn2cc1NC(=O)c1cccc(C(F)(F)F)n1` (centres unmarked) [Example 59, N-(7-ethoxy-2-(tetrahydrofuran-3-yl)imidazo[1,2-a]pyridin-6-yl)-6-(trifluoromethyl)picolinamide], the 50% inhibitory concentration (IC50) was determined as 0.002 µM on IRAK4 [1] and 0.003 µM on IRAK4 [2].

Consider `CCOc1cc2nc(CC3CCCO3)cn2cc1NC(=O)c1cccc(C(F)(F)F)n1` (centres unmarked) [Example 60, N-(7-ethoxy-2-((tetrahydrofuran-2-yl)methyl)imidazo[1,2-a]pyridin-6-yl)-6-(trifluoromethyl)picolinamide], for which the figures for the IC50 on IRAK4 [1] and against IRAK4 [2] were 0.002 µM and 0.006 µM, respectively.

`CCOc1cc2nc(C3CNC3)cn2cc1NC(=O)c1cccc(C(F)(F)F)n1` [Example 61, N-(2-(azetidin-3-yl)-7-ethoxyimidazo[1,2-a]pyridin-6-yl)-6-(trifluoromethyl)picolinamide]: the IC50 worked out at 0.001 µM on IRAK4 [1] and 0.002 µM against IRAK4 [2].

`CCOc1cc2nc(C3CCNC3)cn2cc1NC(=O)c1cccc(C(F)(F)F)n1` (centres unmarked) [Example 62, N-(7-ethoxy-2-(pyrrolidin-3-yl)imidazo[1,2-a]pyridin-6-yl)-6-(trifluoromethyl)picolinamide]: the IC50 against IRAK4 [1] and against IRAK4 [2] was 0.001 µM throughout.

Regarding `CCOc1cc2nc(C3CN(C)C3)cn2cc1NC(=O)c1cccc(C(F)(F)F)n1` [Example 65, N-(7-ethoxy-2-(1-methylazetidin-3-yl)imidazo[1,2-a]pyridin-6-yl)-6-(trifluoromethyl)picolinamide], the IC50 at IRAK4 [1] and at IRAK4 [2] was 0.001 µM throughout.

Take `CCOc1cc2nc(C3CN(C(C)=O)C3)cn2cc1NC(=O)c1cccc(C(F)(F)F)n1` [Example 68, N-(2-(1-acetylazetidin-3-yl)-7-ethoxyimidazo[1,2-a]pyridin-6-yl)-6-(trifluoromethyl)picolinamide]: the IC50 against IRAK4 [1] and on IRAK4 [2] was 0.001 µM each time.

Take `CCOc1cc2nc(C3CCN(C(C)=O)C3)cn2cc1NC(=O)c1cccc(C(F)(F)F)n1` (centres unmarked) [Example 69, N-(2-(1-acetylpyrrolidin-3-yl)-7-ethoxyimidazo[1,2-a]pyridin-6-yl)-6-(trifluoromethyl)picolinamide]: the IC50 on IRAK4 [1] and against IRAK4 [2] was 0.001 µM throughout.

On to `CCOc1cc2nc(C3CCN(C(C)=O)CC3)cn2cc1NC(=O)c1cccc(C(F)(F)F)n1` [Example 72, N-(2-(1-acetylpiperidin-4-yl)-7-ethoxyimidazo[1,2-a]pyridin-6-yl)-6-(trifluoromethyl)picolinamide], for which the IC50 against IRAK4 [1] and against IRAK4 [2] was 0.001 µM throughout.

As to `O=C1CC[C@@H](CCOc2cc3nc(C4CC4)cn3cc2NC(=O)c2cccc(C(F)F)n2)N1` [Example 73, (S)—N-(2-cyclopropyl-7-(2-(5-oxopyrrolidin-2-yl)ethoxy)imidazo[1,2-a]pyridin-6-yl)-6-(difluoromethyl)picolinamide], the IC50 at IRAK4 [1] turned out to be 0.011 µM; against IRAK4 [2], 0.032 µM.

With `CCOc1nc2nc(CC)cn2cc1NC(=O)c1cccc(C(F)F)n1` [Example 74, 6-(difluoromethyl)-N-(7-ethoxy-2-ethylimidazo[1,2-a]pyrimidin-6-yl)picolinamide], the figures for the IC50 against IRAK4 [1] and against IRAK4 [2] were 0.007 µM and 0.018 µM, respectively.

On to `CCOc1cc2nc(C3CN(C4COC4)C3)cn2cc1NC(=O)c1cccc(C(F)F)n1` [Example 79, 6-(difluoromethyl)-N-(7-ethoxy-2-(1-(oxetan-3-yl)azetidin-3-yl)imidazo[1,2-a]pyridin-6-yl)picolinamide], for which the IC50 at IRAK4 [1] and against IRAK4 [2] was 0.001 µM throughout.

Consider `CCOc1cc2nc(C3CN(CCOC)C3)cn2cc1NC(=O)c1cccc(C(F)F)n1` [Example 80, 6-(difluoromethyl)-N-(7-ethoxy-2-(1-(2-methoxyethyl)azetidin-3-yl)imidazo[1,2-a]pyridin-6-yl)picolinamide], for which the IC50 against IRAK4 [1] worked out at 0.002 µM; at IRAK4 [2] it was 0.005 µM.

As for `CCOc1cc2nc(C3CN(C(C)=O)C3)cn2cc1NC(=O)c1cccc(C(F)F)n1` [Example 81, N-(2-(1-acetylazetidin-3-yl)-7-ethoxyimidazo[1,2-a]pyridin-6-yl)-6-(difluoromethyl)picolinamide], the half-maximal inhibitory concentration (IC50) on IRAK4 [1] and on IRAK4 [2] was 0.001 µM each time.

For `CCOc1cc2nc(Cn3cncn3)cn2cc1NC(=O)c1cccc(C(F)F)n1` [Example 82, N-(2-((1H-1,2,4-triazol-1-yl)methyl)-7-ethoxyimidazo[1,2-a]pyridin-6-yl)-6-(difluoromethyl)picolinamide], the IC50 against IRAK4 [1] came to 0.001 µM; against IRAK4 [2], 0.004 µM.

For the molecule `CCOc1cc2nc(CC3COCCO3)cn2cc1NC(=O)c1cccc(C(F)F)n1` (centres unmarked) [Example 83, N-(2-((1,4-dioxan-2-yl)methyl)-7-ethoxyimidazo[1,2-a]pyridin-6-yl)-6-(difluoromethyl)picolinamide], the half-maximal inhibitory concentration (IC50) was determined as 0.001 µM against IRAK4 [1] and 0.005 µM against IRAK4 [2].

`CCOc1cc2nc(Cc3ccn(C)n3)cn2cc1NC(=O)c1cccc(C(F)F)n1` [Example 84, 6-(difluoromethyl)-N-(7-ethoxy-2-((1-methyl-1H-pyrazol-3-yl)methyl)imidazo[1,2-a]pyridin-6-yl)picolinamide]: the results for the IC50 against IRAK4 [1] and on IRAK4 [2] were 0.082 µM and 0.015 µM, respectively.

Consider `CCOc1cc2nc(CN3CCCC3=O)cn2cc1NC(=O)c1cccc(C(F)F)n1` [Example 85, 6-(difluoromethyl)-N-(7-ethoxy-2-((2-oxopyrrolidin-1-yl)methyl)imidazo[1,2-a]pyridin-6-yl)picolinamide], for which the IC50 on IRAK4 [1] is 0.002 µM; against IRAK4 [2], 0.012 µM.

`CCOc1cc2nc(COc3ccccn3)cn2cc1NC(=O)c1cccc(C(F)F)n1` [Example 86, 6-(difluoromethyl)-N-(7-ethoxy-2-((pyridin-2-yloxy)methyl)imidazo[1,2-a]pyridin-6-yl)picolinamide]: the figures for the IC50 against IRAK4 [1] and at IRAK4 [2] were 0.006 µM and 0.008 µM, respectively.

On to `CCOc1cc2nc(Cn3ccccc3=O)cn2cc1NC(=O)c1cccc(C(F)F)n1` [Example 87, 6-(difluoromethyl)-N-(7-ethoxy-2-((2-oxopyridin-1(2H)-yl)methyl)imidazo[1,2-a]pyridin-6-yl)picolinamide], for which the IC50 on IRAK4 [1] amounted to 0.004 µM; at IRAK4 [2] it was 0.017 µM.

Take `CCOc1cc2nc(CCCOC)cn2cc1NC(=O)c1ccn(C(F)F)n1` [Example 88, 1-(difluoromethyl)-N-(7-ethoxy-2-(3-methoxypropyl)imidazo[1,2-a]pyridin-6-yl)-1H-pyrazole-3-carboxamide]: the IC50 was 0.003 µM against IRAK4 [1] and 0.004 µM on IRAK4 [2].

For the molecule `CCOc1cc2nc(C3(O)CCOCC3)cn2cc1NC(=O)c1cccc(C(F)F)n1` [Example 90, 6-(difluoromethyl)-N-(7-ethoxy-2-(4-hydroxytetrahydro-2H-pyran-4-yl)imidazo[1,2-a]pyridin-6-yl)picolinamide], the IC50 was 0.002 µM against IRAK4 [1] and 0.004 µM at IRAK4 [2].

For `CCOc1cc2nc(C3(OCC)CCOCC3)cn2cc1NC(=O)c1cccc(C(F)F)n1` [Example 91, 6-(difluoromethyl)-N-(7-ethoxy-2-(4-ethoxytetrahydro-2H-pyran-4-yl)imidazo[1,2-a]pyridin-6-yl)picolinamide], the results for the 50% inhibitory concentration (IC50) on IRAK4 [1] and against IRAK4 [2] were 0.001 µM and 0.003 µM, respectively.
